One experiment has as its target T1, BRAF^V600E (Homo sapiens, UniProt P15056, V600E).
T1 construct: purchased Invitrogen
Kind of experiment: BRAF V600E enzymatic activity, FRET-based Z'-Lyte kinase assay. Type of experiment: biochemical. As for the experimental part:
The experiments were performed according to the instructions of the manufacturer. […] For each assay, 10 μl kinase reactions were added to 384-well plate, mixed thoroughly, and incubated for 1 hour at room temperature. Then, a 5 μl development solution was added to each well and the plate was incubated for another 1 h at room temperature. Then, a 5 μl stop reagent was loaded to stop the reaction. For the control setting, a 5 μl phospho-peptide solution instead of kinase/peptide mixture was used as 100% phosphorylation control. […] The plate was measured on an EnVision Multilabel Reader (Perkin-Elmer). Curve fitting and data presentations were performed using GraphPad Prism, version 5.0. Every experiment was repeated at least two times.

Another experiment deals with HCT116 cells. Kind of experiment: Antiproliferation CCK-8 assay, HCT116. Type of experiment: cell-based. Particulars: Homo sapiens, HCT-116; CCK-8, 72 h, HCT116 (wild-type BRAF); means of three independent experiments; read-out: Cellular IC50 HCT116. On the procedure: HCT116 and HT-29 cells were obtained from the Shanghai Cell Bank (Type Culture Collection (TCC), Chinese Academy of Sciences) and cultured in DMEM (10–013-CVR, corning) supplemented with 10% fetal bovine serum (04-001-1A, BI), 1% penicillin/streptomycin (03-031-1B, BI).
The cells in the logarithmic phase were placed in 96-well plates (∼3000 cells/well) in a complete medium. After incubation overnight, the cells were exposed to the corresponding compounds or vehicle control at the indicated concentration for a further 72 h. Cell proliferation was evaluated using Cell Counting Kit 8 (CCK8, CK04, Dojindo Laboratories, Kumamoto, Japan). OD450 and OD650 were determined using a microplate reader. Absorbance rate (A) for each well was calculated as OD450 −OD650. […] Each IC50 value is expressed as mean ± SD. As is the absorbance rate of the test compound well, Ac is the absorbance rate of the well without either the cell or test compound, and Ab is the absorbance rate of the well with the cell and vehicle control.

The next experiment concerns the target T2, HDAC3 (Homo sapiens, UniProt O15379).
T2 construct: purchased BPS Bioscience
Kind of experiment: HDAC3 fluorescent-based enzymatic activity assay. The format is biochemical. The settings on record: Table 3 isoform panel; read-out: Enzyme inhibition HDAC3 (Class I). On the procedure:
(§1) The purified recombinant Human HDACs and their corresponding substrates were purchased from BPS Bioscience (BPS Bioscience Inc., United States). The assays were carried out in a 384-well format using the BPS fluorescent–based HDAC activity assay according to the manufacturer’s protocol. In brief, […] of the HDAC reaction mixture was composed of HDAC assay buffer, […] BSA, serial diluted test compounds, appropriate concentration of HDACs, and […] fluorogenic substrate, the mixture was incubated at 37°C for 60 min, and then stopped by the addition of developer containing trypsin and TSA. After 20 min of incubation, the fluorescence was detected at the excitation wavelength of 360 nm and the emission wavelength of 460 nm using the EnVision Multilabel Reader (PerkinElmer Inc., United States). The analytical software, GraphPad Prism 5.0 (GraphPad Software, Inc., United States) was used to generate IC50 value via non-linear regression analysis.

For another experiment, the target named is T3, HDAC8 (Homo sapiens, UniProt Q9BY41).
T3 construct: purchased BPS Bioscience
T3 sequence (Q9BY41 1-377): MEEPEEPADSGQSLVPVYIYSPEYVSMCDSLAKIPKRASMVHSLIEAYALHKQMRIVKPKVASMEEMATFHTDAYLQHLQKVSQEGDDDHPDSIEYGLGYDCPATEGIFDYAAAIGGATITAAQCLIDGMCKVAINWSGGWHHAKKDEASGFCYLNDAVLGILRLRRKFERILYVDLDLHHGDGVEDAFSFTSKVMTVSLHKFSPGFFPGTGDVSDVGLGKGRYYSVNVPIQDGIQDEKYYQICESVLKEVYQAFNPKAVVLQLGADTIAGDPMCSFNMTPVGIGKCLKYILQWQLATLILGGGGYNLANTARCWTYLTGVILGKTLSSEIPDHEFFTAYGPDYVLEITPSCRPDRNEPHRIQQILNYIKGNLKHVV
Kind of experiment: HDAC8 fluorescent-based enzymatic activity assay. Type of experiment: biochemical. Particulars: Table 3 isoform panel; read-out: Enzyme inhibition HDAC8 (Class I). As for the experimental part:
as §1

In another experiment the target is T4, HDAC4 (Homo sapiens, UniProt P56524).
T4 construct: purchased BPS Bioscience
T4 sequence (P56524 whole entry): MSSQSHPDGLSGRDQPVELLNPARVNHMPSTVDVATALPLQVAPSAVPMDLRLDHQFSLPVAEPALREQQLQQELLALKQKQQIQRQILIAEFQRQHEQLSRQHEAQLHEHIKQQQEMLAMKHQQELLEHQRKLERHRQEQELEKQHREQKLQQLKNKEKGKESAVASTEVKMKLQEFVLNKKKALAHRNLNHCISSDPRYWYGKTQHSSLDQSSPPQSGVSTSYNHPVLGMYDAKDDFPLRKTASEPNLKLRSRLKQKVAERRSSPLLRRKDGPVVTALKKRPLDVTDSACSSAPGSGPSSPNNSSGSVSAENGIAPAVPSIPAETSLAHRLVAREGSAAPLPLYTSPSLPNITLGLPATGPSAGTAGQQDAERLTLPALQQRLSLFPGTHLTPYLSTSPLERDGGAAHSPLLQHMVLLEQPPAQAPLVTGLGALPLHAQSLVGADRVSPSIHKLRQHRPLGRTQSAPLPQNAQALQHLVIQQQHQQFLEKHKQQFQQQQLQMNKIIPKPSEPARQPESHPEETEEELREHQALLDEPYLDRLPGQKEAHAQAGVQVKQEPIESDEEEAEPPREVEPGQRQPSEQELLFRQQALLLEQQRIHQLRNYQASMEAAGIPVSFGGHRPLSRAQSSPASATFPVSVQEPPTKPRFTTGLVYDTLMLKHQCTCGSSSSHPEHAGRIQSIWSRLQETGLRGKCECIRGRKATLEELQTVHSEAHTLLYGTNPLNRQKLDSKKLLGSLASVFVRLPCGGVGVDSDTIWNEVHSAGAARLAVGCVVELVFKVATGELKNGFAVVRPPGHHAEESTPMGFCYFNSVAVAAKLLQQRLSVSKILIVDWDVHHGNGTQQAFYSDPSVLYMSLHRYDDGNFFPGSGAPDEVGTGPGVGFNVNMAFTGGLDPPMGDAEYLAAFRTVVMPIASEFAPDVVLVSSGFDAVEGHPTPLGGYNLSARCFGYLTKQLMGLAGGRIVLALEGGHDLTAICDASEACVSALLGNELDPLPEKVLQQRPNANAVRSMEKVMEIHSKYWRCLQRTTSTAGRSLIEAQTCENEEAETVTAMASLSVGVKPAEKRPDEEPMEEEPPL
Kind of experiment: HDAC4 fluorescent-based enzymatic activity assay. The settings on record: Table 3 isoform panel; read-out: Enzyme inhibition HDAC4 (Class IIA). The format is biochemical. As for the experimental part: as §1

For the next experiment, the target named is T5, HDAC5 (Homo sapiens, UniProt Q9UQL6).
T5 construct: purchased BPS Bioscience
T5 sequence (Q9UQL6 whole entry): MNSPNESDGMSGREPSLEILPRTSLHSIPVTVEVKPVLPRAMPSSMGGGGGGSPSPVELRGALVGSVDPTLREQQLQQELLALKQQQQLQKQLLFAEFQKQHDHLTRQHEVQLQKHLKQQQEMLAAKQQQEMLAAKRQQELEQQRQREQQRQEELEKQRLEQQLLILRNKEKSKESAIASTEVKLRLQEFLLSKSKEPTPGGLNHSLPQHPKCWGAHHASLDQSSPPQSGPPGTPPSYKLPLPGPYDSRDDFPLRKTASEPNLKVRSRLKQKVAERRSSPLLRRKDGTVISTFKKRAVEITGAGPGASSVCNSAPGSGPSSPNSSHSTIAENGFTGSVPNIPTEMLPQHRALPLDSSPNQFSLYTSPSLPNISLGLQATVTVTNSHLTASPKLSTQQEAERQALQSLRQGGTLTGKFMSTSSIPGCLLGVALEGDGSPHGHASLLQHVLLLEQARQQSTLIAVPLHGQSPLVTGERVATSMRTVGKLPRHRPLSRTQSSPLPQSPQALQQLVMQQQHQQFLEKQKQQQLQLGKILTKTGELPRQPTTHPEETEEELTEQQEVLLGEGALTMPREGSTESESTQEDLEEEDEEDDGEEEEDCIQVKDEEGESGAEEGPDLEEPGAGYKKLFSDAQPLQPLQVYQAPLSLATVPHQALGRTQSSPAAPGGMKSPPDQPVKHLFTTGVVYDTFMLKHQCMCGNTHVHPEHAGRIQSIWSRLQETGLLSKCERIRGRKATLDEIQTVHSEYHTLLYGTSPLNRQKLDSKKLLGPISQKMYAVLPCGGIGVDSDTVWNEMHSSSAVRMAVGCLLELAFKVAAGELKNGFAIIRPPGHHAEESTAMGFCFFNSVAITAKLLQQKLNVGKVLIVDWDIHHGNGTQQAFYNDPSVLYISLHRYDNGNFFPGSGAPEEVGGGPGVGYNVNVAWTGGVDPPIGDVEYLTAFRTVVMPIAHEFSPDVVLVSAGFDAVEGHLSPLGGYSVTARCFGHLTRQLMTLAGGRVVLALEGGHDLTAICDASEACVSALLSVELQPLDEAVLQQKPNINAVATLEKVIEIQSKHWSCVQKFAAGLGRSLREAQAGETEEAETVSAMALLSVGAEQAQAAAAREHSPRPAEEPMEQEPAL
Kind of experiment: HDAC5 fluorescent-based enzymatic activity assay. The format is biochemical. The settings on record: Table 3 isoform panel; read-out: Enzyme inhibition HDAC5 (Class IIA). As for the experimental part:
as §1

In the next experiment the target is T6, HDAC7 (Homo sapiens, UniProt Q8WUI4).
T6 construct: purchased BPS Bioscience
T6 sequence (Q8WUI4 1-952): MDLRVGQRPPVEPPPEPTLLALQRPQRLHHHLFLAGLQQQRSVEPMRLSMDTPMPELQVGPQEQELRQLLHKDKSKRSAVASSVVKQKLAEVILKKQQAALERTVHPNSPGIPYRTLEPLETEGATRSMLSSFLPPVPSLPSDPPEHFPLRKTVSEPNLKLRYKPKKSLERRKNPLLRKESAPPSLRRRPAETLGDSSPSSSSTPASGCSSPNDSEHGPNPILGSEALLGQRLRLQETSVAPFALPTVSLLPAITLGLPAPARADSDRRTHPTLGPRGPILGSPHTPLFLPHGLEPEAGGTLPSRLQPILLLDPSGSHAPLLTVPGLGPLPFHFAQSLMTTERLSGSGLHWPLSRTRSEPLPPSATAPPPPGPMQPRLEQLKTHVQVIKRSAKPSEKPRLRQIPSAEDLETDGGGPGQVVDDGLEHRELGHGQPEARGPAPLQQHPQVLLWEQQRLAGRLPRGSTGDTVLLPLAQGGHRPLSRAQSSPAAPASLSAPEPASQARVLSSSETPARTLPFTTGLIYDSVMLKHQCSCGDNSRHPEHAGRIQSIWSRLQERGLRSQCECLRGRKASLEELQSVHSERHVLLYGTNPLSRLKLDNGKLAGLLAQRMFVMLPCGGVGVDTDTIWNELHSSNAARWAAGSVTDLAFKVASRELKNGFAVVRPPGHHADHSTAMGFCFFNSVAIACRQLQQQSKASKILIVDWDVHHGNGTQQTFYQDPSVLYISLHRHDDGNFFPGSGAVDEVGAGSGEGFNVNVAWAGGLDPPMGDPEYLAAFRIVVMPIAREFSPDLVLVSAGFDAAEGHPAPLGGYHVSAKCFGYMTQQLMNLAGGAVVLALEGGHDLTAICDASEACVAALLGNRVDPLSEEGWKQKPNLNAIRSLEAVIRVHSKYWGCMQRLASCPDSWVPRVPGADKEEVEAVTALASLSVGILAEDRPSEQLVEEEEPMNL
Kind of experiment: HDAC7 fluorescent-based enzymatic activity assay. Particulars: Table 3 isoform panel; read-out: Enzyme inhibition HDAC7 (Class IIA). Type of experiment: biochemical. As for the experimental part: as §1

T2 sequence (O15379 whole entry): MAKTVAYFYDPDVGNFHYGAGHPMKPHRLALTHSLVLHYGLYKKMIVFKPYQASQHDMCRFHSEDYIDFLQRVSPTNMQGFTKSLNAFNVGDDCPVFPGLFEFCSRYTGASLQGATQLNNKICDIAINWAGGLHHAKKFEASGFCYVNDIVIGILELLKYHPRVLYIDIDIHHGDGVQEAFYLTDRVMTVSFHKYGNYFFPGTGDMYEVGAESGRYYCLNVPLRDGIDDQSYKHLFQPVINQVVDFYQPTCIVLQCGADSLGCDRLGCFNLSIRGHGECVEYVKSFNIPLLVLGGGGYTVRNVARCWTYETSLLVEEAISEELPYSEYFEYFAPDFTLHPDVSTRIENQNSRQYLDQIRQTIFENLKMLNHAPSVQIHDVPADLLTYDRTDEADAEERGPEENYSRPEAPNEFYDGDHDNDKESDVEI
T2 sequence (Q9Y618 395-489 partner limits assumed): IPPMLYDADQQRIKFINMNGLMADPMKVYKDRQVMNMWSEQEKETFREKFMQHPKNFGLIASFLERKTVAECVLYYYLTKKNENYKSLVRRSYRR
T1 sequence (P15056 whole entry V600E): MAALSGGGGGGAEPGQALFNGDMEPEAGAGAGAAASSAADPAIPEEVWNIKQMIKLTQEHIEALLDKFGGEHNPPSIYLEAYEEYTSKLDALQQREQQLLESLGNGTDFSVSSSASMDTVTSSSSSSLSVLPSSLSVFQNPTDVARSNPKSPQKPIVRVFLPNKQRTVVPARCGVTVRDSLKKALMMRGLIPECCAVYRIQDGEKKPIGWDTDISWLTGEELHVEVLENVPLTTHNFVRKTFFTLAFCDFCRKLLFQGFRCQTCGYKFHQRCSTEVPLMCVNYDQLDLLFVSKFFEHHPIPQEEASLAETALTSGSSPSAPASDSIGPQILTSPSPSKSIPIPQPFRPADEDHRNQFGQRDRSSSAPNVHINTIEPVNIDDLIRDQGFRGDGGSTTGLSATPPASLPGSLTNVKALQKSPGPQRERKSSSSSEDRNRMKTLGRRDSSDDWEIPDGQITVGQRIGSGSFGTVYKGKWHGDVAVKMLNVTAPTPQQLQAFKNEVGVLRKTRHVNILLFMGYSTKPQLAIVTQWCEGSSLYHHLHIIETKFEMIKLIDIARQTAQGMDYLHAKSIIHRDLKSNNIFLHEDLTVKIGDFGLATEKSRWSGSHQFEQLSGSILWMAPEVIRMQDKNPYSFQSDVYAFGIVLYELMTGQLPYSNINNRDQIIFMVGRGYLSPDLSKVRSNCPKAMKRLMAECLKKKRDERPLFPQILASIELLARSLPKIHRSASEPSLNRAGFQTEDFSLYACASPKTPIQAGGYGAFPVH

In the case of `CC(C)(C)c1nc(-c2cccc(NS(=O)(=O)c3c(F)cccc3F)c2F)c(-c2ccnc(NCCCCCCC(=O)NO)n2)s1` [14b, 7-{[4-(2-(Tert-Butyl)-4-(3-((2,6-Difluorophenyl)Sulfonamido)-2-Fluorophenyl)Thiazol-5-yl)Pyrimidin-2-yl]Amino}-N-Hydroxyheptanamide], the IC50 on BRAF^V600E is 0.00171 µM; in the experiment with HCT116 cells, 1.68 µM; at HDAC3 it was 0.913 µM; at HDAC8 it was 3 µM; at HDAC4 it was more than 100 µM; on HDAC5, 52.9 µM. On HDAC7, the IC50 is 43.3 µM.

The values above are taken from publication PMC9354042, “Discovery of BRAF/HDAC Dual Inhibitors Suppressing Proliferation of Human Colorectal Cancer Cells” (Frontiers in Chemistry, 2022).
